Laboratory results taken from US7258878B2, “Anti-microbial composition and methods of use thereof” (Kimberly-Clark Worldwide, Inc., priority 2004, dated 2007).
Where two headings read alike, the source gives them in different places.

What was measured:
[1] = system: Lactobacillus acidophilus (ATCC 11975); experiment: Zone of inhibition test against Lactobacillus acidophilus; assay type: cell-based; conditions: sample size 100 μl; for Zone of Inhibition: duplicate
Protocol: (§1) Microorganism cultures of 10^5 cfu (colony forming units)/ml in a 1×PBS (phosphate buffered saline) solution were used. One ml of the solution was plated on a trypticase soy agar plate (TSA) and allowed to grow at 35° C. for four hours. 4 mm diameter wells were then punched in each TSA plate and 100 μl of each compound being tested was added to these wells. The plates were incubated overnight at 35° C. Lawn clearing was measured the next day as an indicator of antimicrobial activity.
Five of these compounds were tested against Lactobacillus acidophilus (ATCC 11975). None of the compounds tested had antimicrobial activity against lactobacilli, a microorganism normally found in humans, specifically in the vagina. Due to their ability to derive lactic acid from glucose, these bacteria create an acidic environment that inhibits growth of many bacterial species that can lead to urogenital infections. Lactobacillus is generally harmless to humans, rarely inciting harmful infections or diseases. Thus, these compounds can be effectively utilized to develop products to address infections arising from Candida, Aspergillus and related species without destroying the normal balance of microbial species found in human gastrointestinal tract.
Gallic acid, 3,4,5-trihydroxybenzoic acid (SIGMA G-7384); eucalyptol, cineole (SIGMA C-8144); naringin: >95%, made from citrus fruit (SIGMA N-1376), and methyl jasmonate, 95% (Aldrich 39270-7) were tested in two concentrations (1 and 10 mg/ml) in DMSO:water (75:25) along with positive control (chlorhexidine 5 mg/ml in 75:25 DMSO:water) and a negative control (75:25 DMSO:water). All tests were conducted in duplicate in a zone of inhibition study (as described in Example 1).

[2] = system: P. aeruginosa (ATCC 9027; Gram negative bacteria); experiment: Zone of inhibition test against P. aeruginosa; assay type: cell-based, Pseudomonas aeruginosa; conditions: for zone of inhibition at 1000 µg/mL / zone of inhibition at 10000 µg/mL: Pseudomonas aeruginosa
Protocol: (§2) Natural compounds were evaluated for anti-microbial activity using the zone of inhibition test (ASTM E214901). The activity against five types of microorganisms: Staphylococcus aureus, Pseudomonas aeruginosa, Escherichia coli, Aspergillis niger and Candida albicans, was evaluated. These microorganisms represent gram positive and gram negative bacteria, fungi and yeast.
(§3) The compounds were tested for activity against E. coli (ATCC 8739; Gram negative bacteria), S. aureus (ATCC 6538; Gram positive bacteria), P. aeruginosa (ATCC 9027; Gram negative bacteria), C. albicans (ATCC 10231; yeast) and A niger (ATCC 16404; fungus) at 1 and 10 mg/ml concentrations by using the zone of inhibition method along with triclosan as a positive control.
(§4) The following natural compounds were tested for their anti-fungal properties: eucalyptol, cineole (SIGMA C-8144); gallic acid, 3,4,5-trihydroxybenzoic acid (SIGMA G-7384); methyl jasmonate, 95% (Aldrich 39270-7); and naringin: >95%, made from citrus fruit (SIGMA N-1376). A DMSO/water (75/25 by volume) mixture was used as the carrying solvent for each compound tested. The compounds were tested at 1 and 10 mg/ml concentrations by using the zone of inhibition method along with triclosan as a positive control.
as §1

[3] = system: S. aureus (ATCC 6538; Gram positive bacteria); experiment: Zone of inhibition test against S. aureus; assay type: cell-based, Staphylococcus aureus; conditions: for zone of inhibition at 1000 µg/mL / zone of inhibition at 10000 µg/mL: Staphylococcus aureus
Protocol: as §2, §3, §4, §1

[4] = system: A niger (ATCC 16404; fungus); experiment: Zone of inhibition test against A. niger; assay type: cell-based, Aspergillis niger; conditions: for zone of inhibition at 1000 µg/mL / zone of inhibition at 10000 µg/mL: Aspergillus niger
Protocol: as §2, §3, §4, §1

[5] = system: E. coli (ATCC 8739; Gram negative bacteria); experiment: Zone of inhibition test against E. coli; assay type: cell-based, Escherichia coli; conditions: for zone of inhibition at 1000 µg/mL / zone of inhibition at 10000 µg/mL: Escherichia coli
Protocol: as §2, §3, §4, §1

[6] = system: C. albicans (ATCC 10231; yeast); experiment: Zone of inhibition test against C. albicans; assay type: cell-based, Candida albicans; conditions: for zone of inhibition at 1000 µg/mL / zone of inhibition at 10000 µg/mL: Candida albicans; for Selective inhibition of C. albicans (conclusion in words): zone of inhibition, five organisms tested, 1 and 10 mg/ml
Protocol: as §2, §3, §4, §1

[7] = 1 mg/ml in DMSO:water 75:25, inoculum 5.8 × 10^5 CFU/ml
[8] = 10 mg/ml in DMSO:water 75:25, inoculum 5.8 × 10^5 CFU/ml
[9] = ATCC9027, concentration 1 mg/ml, 100 μl per well, DMSO/water 75/25, read-out: Zone of inhibition P. aeruginosa
[10] = ATCC9027, concentration 10 mg/ml, 100 μl per well, DMSO/water 75/25
[11] = ATCC6538, concentration 1 mg/ml, 100 μl per well, DMSO/water 75/25, read-out: Zone of inhibition S. aureus
[12] = ATCC6538, concentration 10 mg/ml, 100 μl per well, DMSO/water 75/25
[13] = ATCC16404, concentration 1 mg/ml, 100 μl per well, DMSO/water 75/25, read-out: Zone of inhibition A. niger
[14] = ATCC16404, concentration 10 mg/ml, 100 μl per well, DMSO/water 75/25
[15] = ATCC8739, concentration 1 mg/ml, 100 μl per well, DMSO/water 75/25, read-out: Zone of inhibition E. coli
[16] = ATCC8739, concentration 10 mg/ml, 100 μl per well, DMSO/water 75/25
[17] = ATCC10231, concentration 1 mg/ml, 100 μl per well, DMSO/water 75/25, read-out: Zone of inhibition C. albicans
[18] = ATCC10231, concentration 10 mg/ml, 100 μl per well, DMSO/water 75/25
[19] = concentration 1 mg/ml, 100 μl per well, DMSO/water 75/25
[20] = concentration 10 mg/ml, 100 μl per well, DMSO/water 75/25

Structure (SMILES)	Zone of Inhibition [1, 7]	Zone of Inhibition [1, 8]	zone of inhibition at 1000 µg/mL [2, 9] [mm]	zone of inhibition at 10000 µg/mL [2, 10] [mm]	zone of inhibition at 1000 µg/mL [3, 11] [mm]	zone of inhibition at 10000 µg/mL [3, 12] [mm]	zone of inhibition at 1000 µg/mL [4, 13] [mm]	zone of inhibition at 10000 µg/mL [4, 14] [mm]	zone of inhibition at 1000 µg/mL [5, 15] [mm]	zone of inhibition at 10000 µg/mL [5, 16] [mm]	zone of inhibition at 1000 µg/mL [6, 17] [mm]	zone of inhibition at 10000 µg/mL [6, 18] [mm]	Selective inhibition of C. albicans (conclusion in words) [6]	Zone of inhibition P. aeruginosa [2, 19] [mm]	Zone of inhibition P. aeruginosa [2, 20] [mm]	Zone of inhibition S. aureus [3, 19] [mm]	Zone of inhibition S. aureus [3, 20] [mm]	Zone of inhibition A. niger [4, 19] [mm]	Zone of inhibition A. niger [4, 20] [mm]	Zone of inhibition E. coli [5, 19] [mm]	further results
CC12CCC(CC1)C(C)(C)O2 [Eucalyptol, 1,3,3-Trimethyl-2-oxabicyclo[2,2,2]-octane]	None	None	0	0	0	0	0	0	0	0	3	3	selective inhibitors of C. albicans with no effect on the other four organisms tested	–	–	–	–	–	–	–	–
O=C(O)c1cc(O)c(O)c(O)c1 [Gallic acid, 3,4,5-trihydroxybenzoic acid]	None	None	0	0	0	0	0	0	0	0	5	4	selective inhibitors of C. albicans with no effect on the other four organisms tested	–	–	–	–	–	–	–	–
CC/C=C\CC1C(=O)CCC1CC(=O)OC (centres unmarked) [Methyl jasmonate, methyl jasmonate]	None	None	–	–	–	–	–	–	–	–	–	–	selectively inhibit both C. albicans and A. niger	0	0	0	2	0	5	0	Selective inhibition of A. niger (conclusion in words) ([4]; zone of inhibition, five organisms tested, 1 and 10 mg/ml): selectively inhibit both C. albicans and A. niger; Zone of inhibition E. coli [5, 20]: 0 mm; Zone of inhibition C. albicans [6, 19]: 0 mm; Zone of inhibition C. albicans [6, 20]: 7.5 mm
C[C@@H]1O[C@@H](O[C@H]2[C@H](Oc3cc(O)c4c(c3)OC(c3ccc(O)cc3)CC4=O)O[C@H](CO)[C@@H](O)[C@@H]2O)[C@H](O)[C@H](O)[C@H]1O (stereo partly drawn) [Naringin, 7-[[2-O-(6-Deoxy-α-L-mannopyrano-syl)-β-D-glucopyranosyl]oxy]-2,3-dihydro-5-hydroxy-2-(4-hydroxyphenyl)-4H-1-benzopyran-4-one]	None	None	–	–	–	–	–	–	–	–	–	–	selective inhibitors of C. albicans with no effect on the other four organisms tested	0	0	0	0	0	0	0	Zone of inhibition E. coli [5, 20]: 0 mm; Zone of inhibition C. albicans [6, 19]: 3 mm; Zone of inhibition C. albicans [6, 20]: 3.5 mm
[H]/N=C(\N/C(=N/[H])NCCCCCCNC(=N)NC(=N)Nc1ccc(Cl)cc1)Nc1ccc(Cl)cc1 [Positive control, chlorhexidine, reference compound]	–	–	–	–	–	–	–	–	–	–	–	–	–	–	–	–	–	–	–	–	zone of inhibition at 5000 µg/mL ([1]; Lactobacillus acidophilus, ATCC11975, positive control, chlorhexidine 5 mg/ml in 75:25 DMSO:water, inoculum 5.8 × 10^5 CFU/ml): 6 mm
Oc1cc(Cl)ccc1Oc1ccc(Cl)cc1Cl [Triclosan, triclosan, reference compound]	–	–	–	–	–	–	–	–	–	–	–	–	–	–	–	–	–	–	–	–	zone of inhibition at 1000 µg/mL ([2]; ATCC9027, read-out: Zone of inhibition P. aeruginosa): 0 mm; zone of inhibition at 1000 µg/mL ([3]; ATCC6538, read-out: Zone of inhibition S. aureus): 10 mm; zone of inhibition at 1000 µg/mL ([4]; ATCC16404, read-out: Zone of inhibition A. niger): 10 mm; zone of inhibition at 1000 µg/mL ([5]; ATCC8739, read-out: Zone of inhibition E. coli): 11 mm; zone of inhibition at 1000 µg/mL ([6]; ATCC10231, read-out: Zone of inhibition C. albicans): 8.5 mm
